Source: US11351156B2, “Combination treatment of pancreatic cancer” (INSERM (Institut National de la Santé et de la Recherche …, priority 2017, dated 2022)
Read-outs that look alike come from different tables or passages of the source.

Columns and labels:
pAkt = test: Western blot of Akt phosphorylation in serum-starved, inhibitor-pretreated, stimulated Capan-1 cells; type: cell-based, human; conditions: for pS473 and pT308Akt levels: Capan-1, after 10 min stimulation with serum
Protocol: Pancreatic cancer cell were cultured consistent conditions. Eight hours after plating of cells, they were serum-starved during 16 h, over-night. Cells were pre-treated with inhibitors or their accordingly diluted vehicle (DMSO) during 1 h, then stimulated or not for 10 min or 24 h with 2% FBS, for 10 min with […] EGF, 100 nM Insulin, 50 ng/ml IGF-1, 1 μM LPA, 30 ng/ml PDGF, 200 nM S1P, 1× amino acids or 2 g/l glucose.
Cells were harvested on ice, washed twice with cold PBS, collected, and frozen at −80° C.

[1] = system: serum-induced phosphopeptides in Capan-1 cells; test: SILAC phosphoproteomics of Capan-1 cells under PI3K inhibition; type: cell-based, human
Protocol: Light amino acid-labelled and heavy amino acid-labelled Capan-1 cells (respectively called thereafter “light” and “heavy” cells) were washed twice with phosphate buffer saline (PBS; SIGMA; D8537), trypsined (GE Healthcare; L11-002) and plated at a concentration of 2.5.10^6 cells in a 14.4 cm-diameter dish (Dutscher, 055063). After 48 h, cells were serum-starved during 16 h, over-night. Light and heavy cells were pre-treated respectively with inhibitors or their accordingly diluted vehicule (DMSO) during 1 h, then stimulated or not for 10 min or 24 h with 2% dialysed FBS. After 10 min and 24 h of FBS stimulation, heavy cells and light cells were maintained on ice, washed three times with cold PBS and lysed.
Cells were lysed on the plate with 2 mL of lysis buffer (Tris-HCl 100 mM-pH 7.8 (Sigma, T1503), SDS 1% (Sigma, L3771), EDTA 5 mM-pH7.8 (Euromedex, EU-0007-B), proteases and phosphatases inhibitors (Sigma) containing 1× cOmplete Roche proteases inhibitors cocktail (SIGMA, 04693132001), NaF 10 mM (Sigma, S1504), NaPPi 10 mM (Sigma, S6422) and Na3VO4 10 mM (Sigma, 450243)) during 30 min at 4° C. in dark. Cells were scraped, harvested and incubated 20 min at 57° C. To eliminate DNA-dependent viscosity, samples were sonicated (amplitude 40%, pulse 1 sec, interval 1 sec during 60 sec). Three other lysis buffers were also tested (Buffer 1: NH4HCO3 100 mM pH7.8, Urea 8M; Buffer 2: Tris-HCl 100 mM pH7.8, Urea 8M; Buffer 3/RIPA: Tris-HCl50 mM, NaCl 150 mM, Nonidet P-40 1% pH 7.8, SDS 0.1% (w/v)); the chosen buffer allowed the better extraction of phospho-tyrosine proteins as assessed by Western blotting with anti-pY (p-Tyr100) antibody (Cell Signaling Technology; 8954S) as compared to in gel 1-DE profile. Cell lysates were then cleared from insoluble fraction by centrifugation at 10,000×g for 15 min at 25° C., and protein concentration was measured by 2-D Quant kit (GE Healthcare, 80-6483-56). For each biological replicate, light and heavy lysates were mixed at a 1:1 ratio for a total amount of 6 mg.
Protein samples were reduced with 100 mM DTT (Sigma, D9163) for 35 min at 57° C. and then handled according to the FASP (Filter Aided Sample Preparation) digestion protocol using Amicon Ultra-15 Centrifugal Filter device (10 kDa cut-off, MILLIPORE, UFC901096). The 1st step consisted in the replacement of SDS by urea, then a dilution with UA buffer (Tris-HCl100 mM-pH 8.5, Urea 8M (Sigma, U5128)) and an alkylation with CAA solution (Tris-HCl 100 mM pH 8.5, Urea 8M, Chloroacetamide 50 mM (Sigma, CO267)). For optimization of trypsin efficiency, urea concentration was decreased at 200 mM with Ammonium Bicarbonate buffer (NH4HCO3 0.05M (SIGMA, 09830) and 10 mM phosphatase inhibitors as previously used in lysis buffer). In a 2nd step, Trypsin (Promega, V5117) digestion was performed at 1:50 (w/w) trypsin:protein ratio overnight at 37° C. on the Amicon Ultra-15 Centrifugal Filter. Tryptic peptides were acidified with 1% trifluoroacetic acid (TFA—Sigma, T6508), cleared at 5,000 rpm for 15 minutes at 15° C., and desalted using C18 Sep-Pak plus cartridges (Waters, WAT043395, 500 mg sorbent). Resin was conditioned with 15 mL in 80% Acetonitrile (ACN—Sigma, 34888) then equilibrated with 15 mL in 0.1% TFA. After the loading step, sample was washed with 15 mL in 0.1% TFA, and the elution was performed with 4 mL in 80% ACN, 0.1% TFA). Eluted peptides were lyophilized with a speed-vacuum over night.
Protocol for the enrichment with TiO2 beads is based on Larsen et al., [45] and Jensen et al.. […]

[2] = system: gemcitabine-resistant metastatic pancreatic cancer; conditions: gemcitabine-resistant metastatic pancreatic cancer patients, cited from earlier work
[3] = system: Panc1 cells and human primary Akt2-amplified pancreatic tumour cell; conditions: cited from earlier work
[4] = system: AZD6244-resistant tumours; conditions: added to AZD6244; cited from earlier work
[5] = system: KPC mouse model that rapidly develops PDAC; conditions: cited from earlier work; for tumour progression / tumour size: 12-week old KPC mice, 7 day-treated; for murine lethality / survival: treatment started at 8 weeks of age
KPC pancreatic tumour = conditions: cited from earlier work
[6] = system: primary patient-derived PDAC cells; conditions: mouse, in vivo; cited from earlier work
[7] = system: BxPC-3 cancer cells xenografts; conditions: given after establishment of xenografts; cited from earlier work
pancreatic cancer = conditions: standard of line chemotherapy; cited from earlier work

Cc1cc(C(C)Nc2ccccc2)c2nc(N3CCOCC3)cc(=O)n2c1 (stereo not shown) [TGX-221]
pS473 and pT308Akt levels (pAkt): significantly inhibited
number of serum-induced phosphopeptides changed ([1]; Capan-1, 10 min): 436
number of serum-induced phosphopeptides changed ([1]; Capan-1, 24 h): 437

CO[C@H]1C[C@@H]2CC[C@@H](C)[C@@](O)(O2)C(=O)C(=O)N2CCCC[C@H]2C(=O)O[C@H]([C@H](C)C[C@@H]2CC[C@@H](O)[C@H](OC)C2)CC(=O)[C@H](C)/C=C(\C)[C@@H](O)[C@@H](OC)C(=O)[C@H](C)C[C@H](C)/C=C/C=C/C=C/1C [Sirolimus]
tolerability [2]: well tolerated

O=C1NC(=O)/C(=C/c2ccc(-c3ccc(F)cc3O)o2)S1 [AS-252424]
pS473 and pT308Akt levels (pAkt): significantly inhibited
GPCR-driven (LPA) short-term phosphorylation of Akt (pAkt; LPA stimulation): inhibited
number of serum-induced phosphopeptides changed ([1]; Capan-1, 10 min): 504
number of serum-induced phosphopeptides changed ([1]; Capan-1, 24 h): 404

CO[C@H]1C[C@@H]2CC[C@@H](C)[C@@](O)(O2)C(=O)C(=O)N2CCCC[C@H]2C(=O)O[C@H]([C@H](C)C[C@@H]2CC[C@@H](OC(=O)C(C)(CO)CO)[C@H](OC)C2)CC(=O)[C@H](C)/C=C(\C)[C@@H](O)[C@@H](OC)C(=O)[C@H](C)C[C@H](C)/C=C/C=C/C=C/1C [Temsirolimus]
clinical / therapeutic activity [2]: failed to demonstrate the therapeutic activity

Cc1nc(NC(=O)N2CCC[C@H]2C(N)=O)sc1-c1csc(C(C)(C)C)n1 [A66]
pS473 and pT308Akt levels (pAkt): significantly inhibited
RTK-driven (EGF) short-term phosphorylation of Akt (pAkt; EGF stimulation): inhibited
re-activation of pAkt upon long-term PI3K inhibition (pAkt; serum stimulation, time course up to 48 h): prevents this re-activation of pAkt
number of serum-induced phosphopeptides changed ([1]; Capan-1, 10 min): 449
number of serum-induced phosphopeptides changed ([1]; Capan-1, 24 h): 404

O=c1cc(N2CCOCC2)oc2c(-c3ccccc3)cccc12 [LY-294002]
number of serum-induced phosphopeptides changed ([1]; Capan-1, 10 min): 427
number of serum-induced phosphopeptides changed ([1]; Capan-1, 24 h): 258

Cn1c(=O)n(-c2ccc(C(C)(C)C#N)cc2)c2c3cc(-c4cnc5ccccc5c4)ccc3ncc21 [NVP-BEZ235]
combination effect with panobinostat [3]: additive effect
tumour cell growth [3]: reduced
prevention of resistance to AZD6244 [4]: able to prevent this process

CO[C@H]1C[C@@H]2CC[C@@H](C)[C@@](O)(O2)C(=O)C(=O)N2CCCC[C@H]2C(=O)O[C@H]([C@H](C)C[C@@H]2CC[C@@H](OCCO)[C@H](OC)C2)CC(=O)[C@H](C)/C=C(\C)[C@@H](O)[C@@H](OC)C(=O)[C@H](C)C[C@H](C)/C=C/C=C/C=C/1C [RAD001]
clinical / therapeutic activity [2]: only a minimal clinical action
tolerability [2]: well tolerated
clinical / therapeutic activity ([2]; listed as Everolimus): failed to demonstrate the therapeutic activity

Nc1cc(C(F)(F)F)c(-c2cc(N3CCOCC3)nc(N3CCOCC3)n2)cn1 [BKM120]
tumour progression / tumour size [5]: progressive disease
murine lethality / survival [5]: nearly no effect

Cn1cnc2c(F)c(Nc3ccc(Br)cc3Cl)c(C(=O)NOCCO)cc21 [AZD6244]
tumour progression / tumour size [5]: progressive disease
murine lethality / survival [5]: nearly no effect

CS(=O)(=O)N1CCN(Cc2cc3nc(-c4cccc5[nH]ncc45)nc(N4CCOCC4)c3s2)CC1 [GDC-0941]
disease status (KPC pancreatic tumour; 14 days after established tumours detection): stable disease
pancreatic tumour growth (KPC pancreatic tumour; KPC mice, 14 days): efficiently prevent
response of orthotopic patient-derived PDAC [6]: responded the same way
tumour volumes [7]: did not impair tumour volumes

Nc1ccn([C@@H]2O[C@H](CO)[C@@H](O)C2(F)F)c(=O)n1 [gemcitabine]
increase of patient survival (pancreatic cancer): only a few weeks
